Measurements reported in US10927123B2, “Modulators of the beta-3 adrenergic receptor useful for the treatment or prevention of disorders related thereto” (Arena Pharmaceuticals, Inc., priority 2016, dated 2021).

Molecular target: Beta-3 Adrenergic Receptor (Homo sapiens (Human), UniProt P13945)
Experiment: HTRF cAMP antagonist assay (IC50 determination)
Assay type: cell-based
Details: CHO-K1 cells stably expressing recombinant receptor; antagonism of isoproterenol at EC90; cAMP readout
Procedure, shortened: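 Antagonist mode: isoproterenol at its predetermined EC90 added after compound to recombinant CHO-K1 cells in IBMX-containing PBS, 1 h, room temperature. Compounds tested as 5-fold, 10-point dilutions, top final typically 10 or 100 μM. HTRF signal converted to cAMP via standard curve, giving IC50.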

Sequence of Beta-3 Adrenergic Receptor (P13945 whole entry, species assumed): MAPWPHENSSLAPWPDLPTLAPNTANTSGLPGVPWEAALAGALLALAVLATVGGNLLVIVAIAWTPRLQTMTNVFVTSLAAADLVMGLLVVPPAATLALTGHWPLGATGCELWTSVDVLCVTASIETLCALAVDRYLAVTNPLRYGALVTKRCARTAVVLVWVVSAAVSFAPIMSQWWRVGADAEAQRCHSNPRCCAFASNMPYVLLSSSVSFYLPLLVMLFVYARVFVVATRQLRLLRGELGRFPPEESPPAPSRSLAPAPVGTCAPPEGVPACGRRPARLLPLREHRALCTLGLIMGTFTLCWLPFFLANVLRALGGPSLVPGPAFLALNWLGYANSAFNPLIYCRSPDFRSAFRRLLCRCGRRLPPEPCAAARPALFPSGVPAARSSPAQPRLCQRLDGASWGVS

Row | Structure (SMILES) | IC50 [nM]
1 | CCOc1ccc(-c2ccc(C3(N)CC3)cc2)cc1S(=O)(=O)N1CCC2(CC1)C[C@@H](NC[C@H](O)COc1cccc(S(=O)(=O)CC)c1)CO2 [Compound 257, (S)-1-((R)-8-(4′-(1-aminocyclopropyl)-4-ethoxybiphenyl-3-ylsulfonyl)-1-oxa-8-azaspiro[4.5]decan-3-ylamino)-3-(3-(ethylsulfonyl)phenoxy)propan-2-ol] | 37.8
2 | CS(=O)(=O)c1cccc(OC[C@H](O)CN[C@@H]2COC3(CCN(S(=O)(=O)c4ccc5ccccc5c4)CC3)C2)c1 [Compound 33, (R)-1-(3-(methylsulfonyl)phenoxy)-3-((S)-8-(naphthalen-2-ylsulfonyl)-1-oxa-8-azaspiro[4.5]decan-3-ylamino)propan-2-ol] | 189
3 | CC(C)CS(=O)(=O)c1cccc(OC[C@@H](O)CNC2COC3(CCN(S(=O)(=O)c4ccc5ccccc5c4)CC3)C2)c1 (stereo partly drawn) [Compound 10, (2S)-1-(3-(isobutylsulfonyl)phenoxy)-3-(8-(naphthalen-2-ylsulfonyl)-1-oxa-8-azaspiro[4.5]decan-3-ylamino)propan-2-ol] | 25.1
4 | Cc1cccc(-c2cccc(S(=O)(=O)N3CCC4(CC3)C[C@H](NC[C@H](O)COc3cccc(S(=O)(=O)CCO)c3)CO4)c2)n1 [Compound 120, (5)-1-(3-(2-hydroxyethylsulfonyl)phenoxy)-3-((S)-8-(3-(6-methylpyridin-2-yl)phenylsulfonyl)-1-oxa-8-azaspiro[4.5]decan-3-ylamino)propan-2-ol] | 177
5 | Cc1c(-c2ccc(CN)cc2)cccc1S(=O)(=O)N1CCC2(CC1)C[C@H](NC[C@H](O)COc1cccc(S(=O)(=O)C3(CO)CC3)c1)CO2 [Compound 197, (S)-1-((S)-8-(4′-(aminomethyl)-2-methylbiphenyl-3-ylsulfonyl)-1-oxa-8-azaspiro[4.5]decan-3-ylamino)-3-(3-(1-(hydroxymethyl)cyclopropylsulfonyl)phenoxy)propan-2-ol] | 85

Continued, values first:

Row | IC50 [nM] | Structure (SMILES)
6 | 329 | CS(=O)(=O)c1cccc(OC[C@@H](O)CNC2COC3(CCN(S(=O)(=O)c4ccccn4)CC3)C2)c1 (stereo partly drawn) [Compound 72, (2S)-1-(3-(methylsulfonyl)phenoxy)-3-(8-(pyridin-2-ylsulfonyl)-1-oxa-8-azaspiro[4.5]decan-3-ylamino)propan-2-ol]
7 | 104 | O=S(=O)(c1cccc(OC[C@@H](O)CN[C@H]2COC3(CCN(S(=O)(=O)c4cnc5ccccc5c4)CC3)C2)c1)C1CC(O)C1 (stereo partly drawn) [Compound 146, 3-(3-((S)-2-hydroxy-3-((R)-8-(quinolin-3-ylsulfonyl)-1-oxa-8-azaspiro[4.5]decan-3-ylamino)propoxy)phenylsulfonyl)cyclobutanol]
8 | 3.99 | CCCn1cc(-c2cccc(S(=O)(=O)N3CCC4(CC3)CC(NC[C@H](O)COc3cccc(S(C)(=O)=O)c3)CO4)c2)cn1 (stereo partly drawn) [Compound 38, (2S)-1-(3-(methylsulfonyl)phenoxy)-3-(8-(3-(1-propyl-1H-pyrazol-4-yl)phenylsulfonyl)-1-oxa-8-azaspiro[4.5]decan-3-ylamino)propan-2-ol]
9 | 16.1 | CS(=O)(=O)c1cccc(OC[C@@H](O)CNC2COC3(CCN(S(=O)(=O)c4ccc5c(c4)CCCC5)CC3)C2)c1 (stereo partly drawn) [Compound 29, (2S)-1-(3-(methylsulfonyl)phenoxy)-3-(8-(5,6,7,8-tetrahydronaphthalen-2-ylsulfonyl)-1-oxa-8-azaspiro[4.5]decan-3-ylamino)propan-2-ol]
10 | 68.9 | C[C@@H]1CN(C)c2cc(S(=O)(=O)N3CCC4(CC3)C[C@@H](NC[C@H](O)COc3cccc(S(=O)(=O)C5(CO)CC5)c3)CO4)cnc2O1 [Compound 283, (S)-1-((R)-8-((R)-1,3-dimethyl-2,3-dihydro-1H-pyrido[2,3-b][1,4]oxazin-7-ylsulfonyl)-1-oxa-8-azaspiro[4.5]decan-3-ylamino)-3-(3-(1-(hydroxymethyl)cyclopropylsulfonyl)phenoxy)propan-2-ol]
